In brackets after ≈: the same amount, converted by molar mass. Read-outs that look alike come from different tables or passages of the source.
Key:
C. parapsilosis = experiment: Antifungal Activity Assay (broth microtiter MIC), C. parapsilosis; assay type: cell-based, Candida parapsilosis; conditions: Lodderomyces parapsilosis, ATCC22019, 48 h, ATCC 22019, 3 replicates, MIC recorded at 48 h, read-out: MIC, C. parapsilosis ATCC 22019
Procedure: (§1) Compounds of the present invention were evaluated in an Antifungal Activity Assay. An exemplary procedure for the assay, which measures the susceptibility of various Candida species to antifungal compounds, follows. Compounds to be tested (including fluconazole and amphotericin B) were dissolved in DMSO to obtain a solution having a concentration of 1 mg/mL. These stock solutions were sterile filtered using a 0.22 um nylon syringe filter, then diluted in sterile water to achieve a final concentration of 128 μg/mL.
(§2) All species were grown from frozen stock by directly plating on to freshly prepared Sabouraud Dextrose agar (BD, Difco) and incubated overnight in ambient air at 35° C. for 24 h. A direct suspension was prepared in RPMI 1640+MOPS (Lonza, Biowhittaker) by taking individual colonies from the overnight cultures using sterile swabs soaked in sterile saline. The concentration of the suspension was determined using pre-determined standard curves. These suspensions were then diluted down to 5×10^3 CFU/mL to achieve a final concentration of 2.5×10^3 CFU/mL once added to the microtiter plate as per CLSI guidelines (M27-A3, Vol. 28 No. 14).
(§3) Broth microtiter MIC challenge plates were prepared following CLSI guidelines (M27-A3, Vol. 28 No. 14). The original CLSI guidelines focused on reading Candida MICs after 48 h of incubation. As reading after only 24 h offers a clear advantage of patient care, QC limits are being established for all drugs at 24 h. That being said there are no known interpretive breakpoints for amphotericin B at 24 h and the current fluconazole interpretive breakpoints are based on a 48 h reading. The MICs for the test compounds were recorded at 48 h. All MIC determinations were achieved by visually comparing the growth found in the antibiotic challenged wells to that of the growth control.

C. albicans = experiment: Antifungal Activity Assay (broth microtiter MIC), C. albicans; assay type: cell-based, Candida albicans; conditions: Candida albicans, ATCC90028, 48 h, ATCC 90028, 3 replicates, MIC recorded at 48 h, read-out: MIC, C. albicans ATCC 90028
Procedure: as §1, §2, §3

human (hACC2) = human (hACC2) (Homo sapiens, UniProt O00763); experiment: In vitro ACC inhibition assay (ADP-Glo), hACC2; assay type: biochemical; conditions: 5 nM ACC2, 20 μM ATP, 20 μM acetyl-CoA
Chain of human (hACC2) (O00763 whole entry): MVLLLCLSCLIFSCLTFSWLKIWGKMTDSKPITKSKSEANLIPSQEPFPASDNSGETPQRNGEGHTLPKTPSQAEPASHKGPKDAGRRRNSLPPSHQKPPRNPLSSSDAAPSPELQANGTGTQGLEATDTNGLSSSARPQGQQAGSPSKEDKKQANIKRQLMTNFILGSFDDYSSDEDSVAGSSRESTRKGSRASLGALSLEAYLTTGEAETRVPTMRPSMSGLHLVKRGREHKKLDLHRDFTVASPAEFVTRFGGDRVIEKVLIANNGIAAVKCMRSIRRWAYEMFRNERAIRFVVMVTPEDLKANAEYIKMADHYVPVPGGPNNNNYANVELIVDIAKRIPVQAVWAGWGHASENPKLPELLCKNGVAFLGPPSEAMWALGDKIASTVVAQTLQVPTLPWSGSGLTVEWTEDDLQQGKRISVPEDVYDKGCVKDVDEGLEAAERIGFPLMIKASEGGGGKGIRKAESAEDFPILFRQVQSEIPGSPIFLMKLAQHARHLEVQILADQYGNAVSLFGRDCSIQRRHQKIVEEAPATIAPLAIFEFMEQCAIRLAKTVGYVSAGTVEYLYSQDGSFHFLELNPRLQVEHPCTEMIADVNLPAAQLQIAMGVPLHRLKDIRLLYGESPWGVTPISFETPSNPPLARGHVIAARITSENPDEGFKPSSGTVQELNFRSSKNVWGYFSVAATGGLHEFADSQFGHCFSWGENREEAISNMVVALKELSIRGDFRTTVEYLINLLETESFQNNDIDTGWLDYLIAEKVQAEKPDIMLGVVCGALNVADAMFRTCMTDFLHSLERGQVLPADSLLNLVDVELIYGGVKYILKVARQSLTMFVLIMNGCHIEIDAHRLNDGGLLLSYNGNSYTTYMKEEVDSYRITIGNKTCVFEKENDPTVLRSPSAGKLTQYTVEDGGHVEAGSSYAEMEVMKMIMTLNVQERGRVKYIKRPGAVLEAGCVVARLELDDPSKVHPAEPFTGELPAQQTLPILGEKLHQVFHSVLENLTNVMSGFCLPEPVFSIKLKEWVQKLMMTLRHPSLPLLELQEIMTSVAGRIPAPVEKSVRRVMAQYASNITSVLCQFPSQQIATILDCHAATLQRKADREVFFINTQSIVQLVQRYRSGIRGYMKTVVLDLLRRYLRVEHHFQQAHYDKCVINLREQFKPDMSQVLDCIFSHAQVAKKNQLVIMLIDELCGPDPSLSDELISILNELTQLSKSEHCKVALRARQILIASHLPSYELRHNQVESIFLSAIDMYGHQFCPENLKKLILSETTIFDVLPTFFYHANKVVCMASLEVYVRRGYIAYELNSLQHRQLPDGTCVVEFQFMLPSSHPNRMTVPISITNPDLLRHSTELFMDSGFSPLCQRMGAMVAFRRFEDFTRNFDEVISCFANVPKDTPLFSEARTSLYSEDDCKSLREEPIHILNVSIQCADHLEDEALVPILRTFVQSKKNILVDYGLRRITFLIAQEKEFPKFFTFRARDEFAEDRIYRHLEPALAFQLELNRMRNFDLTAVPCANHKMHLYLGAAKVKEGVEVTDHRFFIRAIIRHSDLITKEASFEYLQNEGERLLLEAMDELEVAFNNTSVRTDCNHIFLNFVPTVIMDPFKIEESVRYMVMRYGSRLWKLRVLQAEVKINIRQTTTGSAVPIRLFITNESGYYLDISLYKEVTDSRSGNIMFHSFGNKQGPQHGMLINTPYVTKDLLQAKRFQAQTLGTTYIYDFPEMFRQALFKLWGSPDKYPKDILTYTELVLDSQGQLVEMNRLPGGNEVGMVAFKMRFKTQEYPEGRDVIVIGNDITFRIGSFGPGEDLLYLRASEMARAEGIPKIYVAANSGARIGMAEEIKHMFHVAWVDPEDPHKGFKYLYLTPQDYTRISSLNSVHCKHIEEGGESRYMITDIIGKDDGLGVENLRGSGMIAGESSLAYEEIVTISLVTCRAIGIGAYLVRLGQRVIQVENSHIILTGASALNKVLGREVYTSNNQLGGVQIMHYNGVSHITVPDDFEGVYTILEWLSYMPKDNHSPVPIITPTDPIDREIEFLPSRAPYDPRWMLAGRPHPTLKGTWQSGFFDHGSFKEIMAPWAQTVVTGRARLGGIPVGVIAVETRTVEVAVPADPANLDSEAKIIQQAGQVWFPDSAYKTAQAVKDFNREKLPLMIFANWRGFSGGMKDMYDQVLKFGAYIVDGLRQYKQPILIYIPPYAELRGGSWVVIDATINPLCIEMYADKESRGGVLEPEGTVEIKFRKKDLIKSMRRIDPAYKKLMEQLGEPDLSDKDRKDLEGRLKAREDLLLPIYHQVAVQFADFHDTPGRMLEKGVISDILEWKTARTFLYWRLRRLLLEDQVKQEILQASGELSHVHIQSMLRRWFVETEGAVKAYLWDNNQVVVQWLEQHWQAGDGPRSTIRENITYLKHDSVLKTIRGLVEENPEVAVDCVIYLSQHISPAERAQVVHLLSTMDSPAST
Procedure: The detailed procedure is as follows. […] 10 μL ADP glo reagent was added. […] 20 μL kinase detection reagent was added.

fungal (fACC2) = fungal (fACC2) (UniProt Q00955); conditions: read-out: fACC2 (in vitro ACC2 Inhibition Assay, IC50), ADP-Glo, 5 nM ACC2, 20 μM ATP, 20 μM acetyl-CoA
Chain of fungal (fACC2) (Q00955 whole entry): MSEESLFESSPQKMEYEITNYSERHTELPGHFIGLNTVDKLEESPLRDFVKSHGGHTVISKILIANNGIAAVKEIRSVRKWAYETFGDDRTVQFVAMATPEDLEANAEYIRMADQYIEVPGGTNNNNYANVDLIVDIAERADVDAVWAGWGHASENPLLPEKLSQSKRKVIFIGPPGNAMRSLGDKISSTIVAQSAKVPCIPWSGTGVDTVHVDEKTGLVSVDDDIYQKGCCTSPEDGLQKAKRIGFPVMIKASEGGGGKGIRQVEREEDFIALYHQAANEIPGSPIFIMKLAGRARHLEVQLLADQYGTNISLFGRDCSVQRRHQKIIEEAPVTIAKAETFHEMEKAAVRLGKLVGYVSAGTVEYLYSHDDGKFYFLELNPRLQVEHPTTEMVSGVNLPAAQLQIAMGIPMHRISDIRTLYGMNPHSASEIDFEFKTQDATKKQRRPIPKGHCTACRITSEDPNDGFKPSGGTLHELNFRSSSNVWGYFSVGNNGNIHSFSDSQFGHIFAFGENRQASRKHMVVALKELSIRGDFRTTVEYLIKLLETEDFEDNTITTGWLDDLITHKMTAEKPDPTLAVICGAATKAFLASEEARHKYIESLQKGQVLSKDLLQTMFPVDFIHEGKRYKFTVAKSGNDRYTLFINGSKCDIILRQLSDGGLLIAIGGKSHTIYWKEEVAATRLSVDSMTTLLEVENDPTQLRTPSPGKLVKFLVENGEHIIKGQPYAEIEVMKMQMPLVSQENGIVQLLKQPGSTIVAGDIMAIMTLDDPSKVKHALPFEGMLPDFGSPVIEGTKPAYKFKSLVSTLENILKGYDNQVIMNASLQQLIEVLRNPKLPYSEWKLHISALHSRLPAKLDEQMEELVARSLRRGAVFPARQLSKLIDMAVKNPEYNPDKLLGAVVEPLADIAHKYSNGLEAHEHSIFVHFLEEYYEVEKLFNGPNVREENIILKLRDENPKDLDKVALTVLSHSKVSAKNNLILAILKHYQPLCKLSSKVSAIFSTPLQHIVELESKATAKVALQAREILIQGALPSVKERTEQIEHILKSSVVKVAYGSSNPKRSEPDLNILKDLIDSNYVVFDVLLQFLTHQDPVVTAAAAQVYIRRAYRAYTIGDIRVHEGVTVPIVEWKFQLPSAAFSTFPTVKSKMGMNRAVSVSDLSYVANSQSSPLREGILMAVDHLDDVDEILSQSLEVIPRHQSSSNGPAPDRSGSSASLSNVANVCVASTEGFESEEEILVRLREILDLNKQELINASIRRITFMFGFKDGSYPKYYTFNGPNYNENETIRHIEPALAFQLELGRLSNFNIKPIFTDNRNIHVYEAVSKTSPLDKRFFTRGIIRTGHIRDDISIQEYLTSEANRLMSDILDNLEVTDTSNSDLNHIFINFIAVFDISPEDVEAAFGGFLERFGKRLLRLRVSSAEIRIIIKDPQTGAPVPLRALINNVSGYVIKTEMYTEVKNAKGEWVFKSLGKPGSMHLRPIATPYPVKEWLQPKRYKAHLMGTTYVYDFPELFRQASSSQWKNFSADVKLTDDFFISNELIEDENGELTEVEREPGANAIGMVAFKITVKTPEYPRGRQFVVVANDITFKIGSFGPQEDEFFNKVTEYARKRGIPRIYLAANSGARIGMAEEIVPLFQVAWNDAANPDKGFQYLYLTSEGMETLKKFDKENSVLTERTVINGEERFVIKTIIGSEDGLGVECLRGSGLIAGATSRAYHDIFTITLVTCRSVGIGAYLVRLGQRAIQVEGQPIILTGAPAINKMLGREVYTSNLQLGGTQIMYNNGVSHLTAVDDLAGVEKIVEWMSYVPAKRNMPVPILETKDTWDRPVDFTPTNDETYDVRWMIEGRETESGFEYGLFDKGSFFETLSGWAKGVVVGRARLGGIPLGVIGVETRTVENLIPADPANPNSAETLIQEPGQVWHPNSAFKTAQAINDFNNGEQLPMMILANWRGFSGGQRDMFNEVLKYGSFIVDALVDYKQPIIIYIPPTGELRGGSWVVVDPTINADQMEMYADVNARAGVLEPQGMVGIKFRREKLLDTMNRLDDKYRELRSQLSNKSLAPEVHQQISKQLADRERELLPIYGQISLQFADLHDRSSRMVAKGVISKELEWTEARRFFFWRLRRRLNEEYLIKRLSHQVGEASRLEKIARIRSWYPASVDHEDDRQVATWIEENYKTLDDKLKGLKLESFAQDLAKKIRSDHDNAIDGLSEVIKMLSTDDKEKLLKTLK

C. krusei = experiment: Antifungal Activity Assay (broth microtiter MIC), C. krusei; assay type: cell-based, Candida krusei; conditions: Pichia kudriavzevii, ATCC6258, 48 h, ATCC 6258, 3 replicates, MIC recorded at 48 h, read-out: MIC, C. krusei ATCC 6258
Procedure: as §1, §2, §3

MIC (C. parapsilosis; Table 3a)	MIC (C. albicans; Table 3a)	IC50 (human (hACC2); Table 2a)	MIC (C. krusei; Table 3a)	Structure (SMILES)	MIC (C. parapsilosis; Table 3b (additional results))	MIC (C. albicans; Table 3b (additional results))	IC50 (human (hACC2); Table 2b, additional results)	IC50 (fungal (fACC2); Table 2b, additional results)	MIC (C. krusei; Table 3b (additional results))	IC50 (fungal (fACC2); Table 2a)
–	–	–	–	CCc1ccc(F)cc1[C@H](Cn1c(=O)n(C(C)(C)C(=O)NC(C)C)c(=O)c2c(C)c(-n3nccn3)sc21)OCC(C)(C)O (stereo in doubt) [Compound I-240]	2.01 to 4 µg/mL (≈ 3.27 to 6.51 µM)	1.01 to 2 µg/mL (≈ 1.64 to 3.25 µM)	10 to 40 nM	1 to 5 nM	> 4.01 µg/mL	–
–	–	–	–	CCc1ccc(F)cc1[C@@H](Cn1c(=O)n(C(C)(C)C(=O)NC(C)C)c(=O)c2c(C)c(-n3nccn3)sc21)OCC(C)(C)O (stereo in doubt) [Compound I-241]	2.01 to 4 µg/mL (≈ 3.27 to 6.51 µM)	1.01 to 2 µg/mL (≈ 1.64 to 3.25 µM)	> 40 nM	5 to 10 nM	> 4.01 µg/mL	–
1.1 to 2 µg/mL (≈ 1.92 to 3.5 µM)	0.25 to 1 µg/mL (≈ 0.437 to 1.75 µM)	5 to 10 nM	0.25 to 1 µg/mL (≈ 0.437 to 1.75 µM)	[2H]C([2H])([2H])Oc1ccccc1[C@H](Cn1c(=O)n(C(C)(C)C(N)=O)c(=O)c2c(C)c(-n3nccn3)sc21)OC1CCOCC1 [Compound I-92]	2.01 to 4 µg/mL (≈ 3.52 to 7 µM)	0.25 to 1 µg/mL (≈ 0.437 to 1.75 µM)	5 to 10 nM	–	1.01 to 2 µg/mL (≈ 1.77 to 3.5 µM)	–
> 4.1 µg/mL	2.1 to 4 µg/mL (≈ 3.85 to 7.33 µM)	5 to 10 nM	2.1 to 4 µg/mL (≈ 3.85 to 7.33 µM)	COc1ccc(F)cc1[C@H](Cn1c(=O)n(C(C)(C)C(=O)O)c(=O)c2c(C)c(-n3nccn3)sc21)OC(C)C [Compound I-93]	> 4.01 µg/mL	2.01 to 4 µg/mL (≈ 3.68 to 7.33 µM)	5 to 10 nM	–	1.01 to 2 µg/mL (≈ 1.85 to 3.67 µM)	–
2.1 to 4 µg/mL (≈ 3.75 to 7.15 µM)	0.25 to 1 µg/mL (≈ 0.447 to 1.79 µM)	1 to 5 nM	2.1 to 4 µg/mL (≈ 3.75 to 7.15 µM)	COc1ccc(F)cc1[C@H](Cn1c(=O)n(C(C)(C)C(=O)O)c(=O)c2c(C)c(-n3nccn3)sc21)OCC(C)C [Compound I-94]	> 4.01 µg/mL	2.01 to 4 µg/mL (≈ 3.59 to 7.15 µM)	1 to 5 nM	–	2.01 to 4 µg/mL (≈ 3.59 to 7.15 µM)	–
1.1 to 2 µg/mL (≈ 1.79 to 3.25 µM)	1.1 to 2 µg/mL (≈ 1.79 to 3.25 µM)	5 to 10 nM	1.1 to 2 µg/mL (≈ 1.79 to 3.25 µM)	COc1ccc(F)cc1[C@H](Cn1c(=O)n(C(C)(C)C(=O)N2CC(O)C2)c(=O)c2c(C)c(-n3nccn3)sc21)OCC(C)C [Compound I-95]	2.01 to 4 µg/mL (≈ 3.27 to 6.51 µM)	2.01 to 4 µg/mL (≈ 3.27 to 6.51 µM)	5 to 10 nM	–	1.01 to 2 µg/mL (≈ 1.64 to 3.25 µM)	–

Structure (SMILES)	MIC (C. parapsilosis; Table 3a)	MIC (C. albicans; Table 3a)	IC50 (human (hACC2); Table 2a)	MIC (C. krusei; Table 3a)	MIC (C. parapsilosis; Table 3b (additional results))	MIC (C. albicans; Table 3b (additional results))	IC50 (human (hACC2); Table 2b, additional results)	IC50 (fungal (fACC2); Table 2b, additional results)	MIC (C. krusei; Table 3b (additional results))	IC50 (fungal (fACC2); Table 2a)
COCCO[C@@H](Cn1c(=O)n([C@@H](C)C(=O)NC(C)C)c(=O)c2c(C)c(-n3nccn3)sc21)c1cc(F)ccc1OC [Compound I-83, (S)-2-(1-((R)-2-(5-fluoro-2-methoxyphenyl)-2-(2-methoxy-ethoxy)ethyl)-5-methyl-2,4-dioxo-6-(2H-1,2,3-triazol-2-yl)-1,4-dihydrothieno[2,3-d]pyrimidin-3(2H)-yl)-N-isopropylpropanamide]	2.1 to 4 µg/mL (≈ 3.57 to 6.8 µM)	2.1 to 4 µg/mL (≈ 3.57 to 6.8 µM)	> 40 nM	2.1 to 4 µg/mL (≈ 3.57 to 6.8 µM)	1.01 to 2 µg/mL (≈ 1.72 to 3.4 µM)	> 4.01 µg/mL	> 40 nM	1 to 5 nM	2.01 to 4 µg/mL (≈ 3.41 to 6.8 µM)	1 to 5 nM
COc1ccccc1[C@H](Cn1c(=O)n(C(C)(C)C(=O)O)c(=O)c2c(C)c(-n3nccn3)sc21)OC1CCOCC1 [Compound I-96]	2.1 to 4 µg/mL (≈ 3.69 to 7.02 µM)	2.1 to 4 µg/mL (≈ 3.69 to 7.02 µM)	1 to 5 nM	2.1 to 4 µg/mL (≈ 3.69 to 7.02 µM)	2.01 to 4 µg/mL (≈ 3.53 to 7.02 µM)	1.01 to 2 µg/mL (≈ 1.77 to 3.51 µM)	1 to 5 nM	1 to 5 nM	2.01 to 4 µg/mL (≈ 3.53 to 7.02 µM)	1 to 5 nM
COc1ccc(F)cc1[C@H](Cn1c(=O)n(C(C)(C)C(=O)NC(C)C)c(=O)c2c(C)c(-n3nccn3)sc21)OCC(C)=O [Compound I-97]	0.25 to 1 µg/mL (≈ 0.416 to 1.66 µM)	0.25 to 1 µg/mL (≈ 0.416 to 1.66 µM)	1 to 5 nM	0.06 to 0.24 µg/mL (≈ 0.0999 to 0.4 µM)	1.01 to 2 µg/mL (≈ 1.68 to 3.33 µM)	1.01 to 2 µg/mL (≈ 1.68 to 3.33 µM)	1 to 5 nM	0.3 to 1 nM	0.25 to 1 µg/mL (≈ 0.416 to 1.66 µM)	0.4 to 1 nM

From patent US10800791B2, “Triazole ACC inhibitors and uses thereof” (Gilead Apollo, LLC, priority 2015, dated 2020)
